Laboratory results: PMC11912475 (Journal of Medicinal Chemistry, 2025)

Legend:
[1] = target: GluN1-GluN2D NMDAR subtype (Homo sapiens, UniProt O15399+Q05586); test: FLIPR/Ca2+ assay, NMDAR GluN1-GluN2D subtype in CHO cells; assay type: cell-based; conditions: CHO cells, 10 μM L-glutamate and 10 μM glycine, n.d. = 50% of inhibition could not be reached at the highest concentration used
Experimental: (§1) These compounds were assessed for their effects on specific heterodimeric NMDAR subtypes stably overexpressed in Chinese Hamster Ovary (CHO) cells. The subtypes tested included GluN1-GluN2A, GluN1-GluN2B, GluN1-GluN2C, and GluN1-GluN2D. CHO cells expressing each of the four NMDAR subtypes were incubated with 10 μM L-glutamate, a concentration known to elicit maximal Ca^2+ influx, serving as the stimulus. Intracellular Ca^2+ levels were subsequently measured to determine the extent of NMDAR activation.
(§2) Assay buffer composition was 145 mM NaCl, 5 mM KCl, 2 mM CaCl2, 1 g/Liter D-(+)-glucose, and 20 mM HEPES (pH 7.3 adjusted with NaOH). Cells were plated at a density of 15.000/well in 384 black/clear bottom plates. […] Cells were kept at 30 °C in 5% CO2 incubator for 24 h. Cells were preloaded for 1 h with 2 μM Fluo-4 Ca^2+-sensitive probe, simultaneously with 2.5 mM probenecid, an inhibitor of nonspecific anion transport, and 500 μM ketamine to avoid cytotoxicity. […] Intracellular Ca^2+ level was monitored by FLIPR (excitation wavelength at 470–495 nm, emission wavelength at 515–575 nm) for 10 s before and 5 min after the addition of test items. All test items, including L-glutamate and glycine, were added simultaneously. […] FLIPR data were normalized as 100%, in the presence of 10 μM L-glutamate and 10 μM glycine, while as 0%, in the presence of assay buffer. […] Then, data were normalized by Excel 2013 (Microsoft Office) software, using wells added with 10 μM L-glutamate plus 10 μM glycine (column 23) as high control, and wells added with assay buffer only (column 24) as low control. To assess plate quality, Z′ calculations were performed in Excel. Z′ was calculated according to following equation: Z′ = 1–3(σh + σl)/|μh – μL| where μ and σ are the means and the standard deviations of the means of high (h) and low (l) controls, respectively. Compound concentration–response curves were plotted by Prism 8 GraphPad software, in the different experimental conditions (see Supporting Information). Data were analyzed using least-squares regression fitting, to fit data to a standard four parameters logistic equation using GraphPad Prism10. This regression fitting allowed the calculation of pIC50 and the corresponding SEM.

[2] = target: T1, GluN1-GluN2B NMDAR subtype (Homo sapiens, UniProt Q05586+Q13224); test: FLIPR/Ca2+ assay, NMDAR GluN1-GluN2B subtype in CHO cells; assay type: cell-based; conditions: CHO cells, 10 μM L-glutamate and 10 μM glycine, n.d. = 50% of inhibition could not be reached at the highest concentration used
T1 construct: host or cells: NR1-2B-CHO cells, constitutive expression
Experimental: as §1, §2

[3] = target: GluN1-GluN2C NMDAR subtype (Homo sapiens, UniProt Q05586+Q14957); test: FLIPR/Ca2+ assay, NMDAR GluN1-GluN2C subtype in CHO cells; assay type: cell-based; conditions: CHO cells, 10 μM L-glutamate and 10 μM glycine, n.d. = 50% of inhibition could not be reached at the highest concentration used
Experimental: as §1, §2

Serotonin 5-HT7 = target: T2, Serotonin 5-HT7 (Homo sapiens, UniProt P34969); test: Radioligand displacement binding assay, [3H]LSD, 5-HT7
T2 construct: host or cells: CHO-K1

μ opioid receptor (MOP) = target: T3, μ opioid receptor (MOP) (Homo sapiens, UniProt P35372); test: biochemical; assay type: binding; conditions: read-out: % inhibition of binding, MOP
T3 construct: host or cells: CHO-K1

Serotonin 5-HT1A = target: T4, Serotonin 5-HT1A (Homo sapiens, UniProt P08908); test: Radioligand displacement binding assay, [3H]8-OH-DPAT, 5-HT1A
T4 construct: host or cells: CHO-K1
T4 sequence (P08908 1-422): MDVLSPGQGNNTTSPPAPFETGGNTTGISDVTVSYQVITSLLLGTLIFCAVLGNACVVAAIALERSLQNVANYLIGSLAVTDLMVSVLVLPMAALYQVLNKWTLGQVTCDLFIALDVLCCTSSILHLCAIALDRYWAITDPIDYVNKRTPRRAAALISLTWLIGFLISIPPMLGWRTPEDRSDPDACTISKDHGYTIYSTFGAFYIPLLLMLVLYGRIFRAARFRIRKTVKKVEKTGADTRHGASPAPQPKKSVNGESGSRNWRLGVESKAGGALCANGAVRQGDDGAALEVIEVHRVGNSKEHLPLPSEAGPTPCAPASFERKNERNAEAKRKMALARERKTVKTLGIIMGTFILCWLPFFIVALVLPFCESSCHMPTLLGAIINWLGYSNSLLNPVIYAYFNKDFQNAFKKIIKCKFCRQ

Serotonin 5-HT2C = target: T5, Serotonin 5-HT2C (Homo sapiens, UniProt P28335); test: Radioligand displacement binding assay, [3H]mesulergine, 5-HT2C
T5 construct: host or cells: CHO-K1
T5 sequence (P28335 33-458): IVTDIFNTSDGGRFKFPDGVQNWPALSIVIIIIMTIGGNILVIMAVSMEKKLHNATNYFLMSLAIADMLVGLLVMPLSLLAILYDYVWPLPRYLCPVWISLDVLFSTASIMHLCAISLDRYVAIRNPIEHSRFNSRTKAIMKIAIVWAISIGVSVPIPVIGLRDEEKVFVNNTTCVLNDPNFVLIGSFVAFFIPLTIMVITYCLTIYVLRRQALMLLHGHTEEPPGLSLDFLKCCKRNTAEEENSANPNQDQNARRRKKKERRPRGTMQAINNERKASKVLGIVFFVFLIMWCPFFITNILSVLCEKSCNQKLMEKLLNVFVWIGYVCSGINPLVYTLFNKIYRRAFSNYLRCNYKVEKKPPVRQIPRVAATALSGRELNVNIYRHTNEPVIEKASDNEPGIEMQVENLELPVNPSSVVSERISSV

[4] = target: T6, Serotonin transporter SERT (Homo sapiens, UniProt P31645); test: Radioligand displacement binding assay, [3H]paroxetine, SERT
T6 construct: host or cells: HEK-293

[5] = target: GluN1-GluN2A NMDAR subtype (Homo sapiens, UniProt Q05586+Q12879); test: FLIPR/Ca2+ assay, NMDAR GluN1-GluN2A subtype in CHO cells; assay type: cell-based; conditions: CHO cells, 10 μM L-glutamate and 10 μM glycine; n.d. = 50% of inhibition could not be reached at the highest concentration used
Experimental: as §1, §2

Muscarinic M5 = target: T7, Muscarinic M5 (Homo sapiens, UniProt P08912); test: Radioligand displacement binding assay, [3H]N-methylscopolamine, M5
T7 construct: host or cells: CHO-K1
T7 sequence (P08912 1-532): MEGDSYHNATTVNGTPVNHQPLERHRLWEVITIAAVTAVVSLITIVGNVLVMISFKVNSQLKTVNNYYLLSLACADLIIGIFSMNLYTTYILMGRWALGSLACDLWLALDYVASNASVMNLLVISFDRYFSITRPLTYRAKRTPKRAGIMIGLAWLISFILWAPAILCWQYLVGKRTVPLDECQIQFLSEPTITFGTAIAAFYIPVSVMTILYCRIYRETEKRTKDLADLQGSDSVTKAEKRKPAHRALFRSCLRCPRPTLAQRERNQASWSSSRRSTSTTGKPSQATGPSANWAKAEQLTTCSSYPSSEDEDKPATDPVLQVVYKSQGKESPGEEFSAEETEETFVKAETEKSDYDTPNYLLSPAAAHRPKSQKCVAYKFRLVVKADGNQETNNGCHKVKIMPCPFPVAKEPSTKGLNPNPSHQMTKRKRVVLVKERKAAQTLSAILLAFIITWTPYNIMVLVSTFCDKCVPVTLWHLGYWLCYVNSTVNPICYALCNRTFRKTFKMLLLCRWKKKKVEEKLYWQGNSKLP

Sigma σ1 = target: T8, Sigma σ1 (Homo sapiens, UniProt Q99720); test: Radioligand displacement binding assay, [3H]pentazocine, sigma σ1
T8 construct: Sigma σ1; Source: Human Jurkat cells; host or cells: Jurkat

[6] = system: Glutamate, NMDA, Phencyclidine binding site; test: Radioligand displacement binding assay, [3H]TCP, NMDA; set-up: species or system Wistar rat
[7] = target: T9, Norepinephrine transporter NET (Homo sapiens, UniProt P23975); test: Radioligand displacement binding assay, [125I]RTI-55, NET
T9 construct: host or cells: MDCK

Histamine H1 = target: T10, Histamine H1 (Homo sapiens, UniProt P35367); test: Radioligand displacement binding assay, [3H]pyrilamine, H1; conditions: for displacement at the histamine H1 receptor, in words: concentration not given
T10 construct: host or cells: CHO-K1

Serotonin 5-HT2A = target: T11, Serotonin 5-HT2A (Homo sapiens, UniProt P28223); test: Radioligand displacement binding assay, [3H]ketanserin, 5-HT2A
T11 construct: host or cells: CHO-K1

Serotonin 5-HT5A = target: T12, Serotonin 5-HT5A (Homo sapiens, UniProt P47898); test: Radioligand displacement binding assay, [3H]LSD, 5-HT5A
T12 construct: host or cells: CHO-K1
T12 sequence (P47898 whole entry): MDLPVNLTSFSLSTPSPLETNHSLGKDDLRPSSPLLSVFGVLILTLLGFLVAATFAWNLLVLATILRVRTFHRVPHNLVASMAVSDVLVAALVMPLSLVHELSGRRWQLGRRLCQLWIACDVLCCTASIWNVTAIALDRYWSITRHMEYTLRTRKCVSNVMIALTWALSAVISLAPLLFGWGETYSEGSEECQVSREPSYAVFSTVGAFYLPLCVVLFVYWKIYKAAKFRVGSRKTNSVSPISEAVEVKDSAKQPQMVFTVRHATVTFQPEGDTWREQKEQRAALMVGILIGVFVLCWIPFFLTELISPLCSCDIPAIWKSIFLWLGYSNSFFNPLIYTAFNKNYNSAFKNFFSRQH

T2 sequence (P34969 whole entry): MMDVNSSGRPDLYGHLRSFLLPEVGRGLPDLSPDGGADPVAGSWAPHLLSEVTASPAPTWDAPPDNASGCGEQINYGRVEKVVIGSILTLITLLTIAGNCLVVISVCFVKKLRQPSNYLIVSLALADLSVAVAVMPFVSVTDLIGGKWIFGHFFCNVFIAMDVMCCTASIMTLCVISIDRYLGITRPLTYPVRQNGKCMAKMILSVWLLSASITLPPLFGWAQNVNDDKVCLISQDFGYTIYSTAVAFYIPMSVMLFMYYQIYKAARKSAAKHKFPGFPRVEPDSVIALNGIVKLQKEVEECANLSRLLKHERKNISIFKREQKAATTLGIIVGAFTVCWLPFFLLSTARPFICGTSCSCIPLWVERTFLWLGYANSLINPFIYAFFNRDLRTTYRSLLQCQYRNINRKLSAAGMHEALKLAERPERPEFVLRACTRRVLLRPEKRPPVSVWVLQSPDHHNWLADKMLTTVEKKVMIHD
T10 sequence (P35367 whole entry): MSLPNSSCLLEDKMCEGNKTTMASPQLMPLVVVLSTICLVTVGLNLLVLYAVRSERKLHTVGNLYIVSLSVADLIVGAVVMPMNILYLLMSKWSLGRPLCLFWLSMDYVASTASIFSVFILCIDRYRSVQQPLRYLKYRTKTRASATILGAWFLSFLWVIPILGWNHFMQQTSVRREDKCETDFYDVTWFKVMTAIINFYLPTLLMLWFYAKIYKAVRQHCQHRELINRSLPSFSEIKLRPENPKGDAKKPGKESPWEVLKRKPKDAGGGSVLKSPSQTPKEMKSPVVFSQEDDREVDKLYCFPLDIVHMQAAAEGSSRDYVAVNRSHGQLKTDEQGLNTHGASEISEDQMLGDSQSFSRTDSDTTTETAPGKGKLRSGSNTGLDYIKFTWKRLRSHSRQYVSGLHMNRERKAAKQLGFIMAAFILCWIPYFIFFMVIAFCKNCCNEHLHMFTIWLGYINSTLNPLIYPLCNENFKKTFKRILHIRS
T9 sequence (P23975 whole entry): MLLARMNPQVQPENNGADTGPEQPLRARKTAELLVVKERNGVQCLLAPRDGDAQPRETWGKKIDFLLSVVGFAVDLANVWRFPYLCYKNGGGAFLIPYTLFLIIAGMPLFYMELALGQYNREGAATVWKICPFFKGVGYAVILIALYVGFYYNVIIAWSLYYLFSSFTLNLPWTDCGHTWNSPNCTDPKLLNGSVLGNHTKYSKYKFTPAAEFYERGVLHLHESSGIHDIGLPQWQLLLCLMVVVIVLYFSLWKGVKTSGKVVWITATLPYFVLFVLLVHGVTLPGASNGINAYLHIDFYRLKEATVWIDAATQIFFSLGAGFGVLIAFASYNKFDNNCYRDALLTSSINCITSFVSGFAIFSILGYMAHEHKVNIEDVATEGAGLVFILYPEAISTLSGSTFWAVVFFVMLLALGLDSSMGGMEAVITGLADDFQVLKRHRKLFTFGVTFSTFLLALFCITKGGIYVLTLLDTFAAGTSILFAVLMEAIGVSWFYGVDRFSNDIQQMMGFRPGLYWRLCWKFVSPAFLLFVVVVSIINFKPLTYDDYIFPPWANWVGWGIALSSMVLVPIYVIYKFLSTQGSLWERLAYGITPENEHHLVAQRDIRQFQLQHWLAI
T6 sequence (P31645 whole entry): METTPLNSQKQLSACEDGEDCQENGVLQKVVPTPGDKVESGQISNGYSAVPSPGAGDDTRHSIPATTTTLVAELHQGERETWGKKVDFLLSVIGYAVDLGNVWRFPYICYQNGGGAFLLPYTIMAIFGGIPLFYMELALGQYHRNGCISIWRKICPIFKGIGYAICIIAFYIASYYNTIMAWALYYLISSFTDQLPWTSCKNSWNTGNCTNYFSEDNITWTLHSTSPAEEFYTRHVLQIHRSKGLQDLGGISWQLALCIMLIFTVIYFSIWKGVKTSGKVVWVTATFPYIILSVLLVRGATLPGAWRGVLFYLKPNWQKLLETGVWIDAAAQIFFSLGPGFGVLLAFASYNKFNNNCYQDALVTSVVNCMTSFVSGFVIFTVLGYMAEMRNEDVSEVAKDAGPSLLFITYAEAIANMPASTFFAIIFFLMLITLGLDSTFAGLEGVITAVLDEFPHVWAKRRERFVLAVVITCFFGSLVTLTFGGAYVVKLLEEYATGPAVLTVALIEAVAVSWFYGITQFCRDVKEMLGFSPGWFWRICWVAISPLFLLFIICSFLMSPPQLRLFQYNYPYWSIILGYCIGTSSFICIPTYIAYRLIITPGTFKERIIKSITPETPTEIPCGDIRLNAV
GluN1-GluN2C NMDAR subtype, sequence (Q14957 20-1233, other chains not shown): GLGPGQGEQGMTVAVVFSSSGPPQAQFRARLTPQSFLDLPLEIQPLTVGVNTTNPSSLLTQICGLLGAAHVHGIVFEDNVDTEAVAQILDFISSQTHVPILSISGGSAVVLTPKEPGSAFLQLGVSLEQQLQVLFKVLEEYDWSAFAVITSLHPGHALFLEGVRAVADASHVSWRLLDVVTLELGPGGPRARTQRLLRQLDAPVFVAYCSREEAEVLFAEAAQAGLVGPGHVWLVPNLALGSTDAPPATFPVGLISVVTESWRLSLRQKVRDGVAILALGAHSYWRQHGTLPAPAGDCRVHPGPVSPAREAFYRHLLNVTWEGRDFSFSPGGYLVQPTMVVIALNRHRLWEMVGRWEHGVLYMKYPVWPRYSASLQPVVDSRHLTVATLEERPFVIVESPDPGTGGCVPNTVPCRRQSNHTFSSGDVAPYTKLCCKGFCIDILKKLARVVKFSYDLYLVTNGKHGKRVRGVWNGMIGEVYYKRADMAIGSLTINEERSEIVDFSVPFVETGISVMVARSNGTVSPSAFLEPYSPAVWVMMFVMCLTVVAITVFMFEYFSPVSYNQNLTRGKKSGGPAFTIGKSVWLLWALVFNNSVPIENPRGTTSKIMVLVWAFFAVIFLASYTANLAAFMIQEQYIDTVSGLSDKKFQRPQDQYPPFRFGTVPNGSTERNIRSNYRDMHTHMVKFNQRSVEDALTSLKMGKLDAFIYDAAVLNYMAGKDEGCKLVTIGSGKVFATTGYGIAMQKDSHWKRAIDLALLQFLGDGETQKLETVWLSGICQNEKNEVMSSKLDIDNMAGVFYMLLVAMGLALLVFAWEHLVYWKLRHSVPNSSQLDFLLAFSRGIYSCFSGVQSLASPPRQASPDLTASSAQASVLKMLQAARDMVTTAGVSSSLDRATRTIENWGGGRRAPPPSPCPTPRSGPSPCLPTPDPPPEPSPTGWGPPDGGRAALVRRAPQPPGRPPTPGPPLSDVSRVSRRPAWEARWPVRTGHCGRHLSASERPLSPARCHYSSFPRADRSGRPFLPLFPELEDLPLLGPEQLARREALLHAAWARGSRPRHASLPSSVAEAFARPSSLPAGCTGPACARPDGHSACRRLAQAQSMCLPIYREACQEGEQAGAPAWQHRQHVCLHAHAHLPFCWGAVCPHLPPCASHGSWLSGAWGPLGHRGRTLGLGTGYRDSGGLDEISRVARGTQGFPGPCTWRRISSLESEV
T11 sequence (P28223 whole entry): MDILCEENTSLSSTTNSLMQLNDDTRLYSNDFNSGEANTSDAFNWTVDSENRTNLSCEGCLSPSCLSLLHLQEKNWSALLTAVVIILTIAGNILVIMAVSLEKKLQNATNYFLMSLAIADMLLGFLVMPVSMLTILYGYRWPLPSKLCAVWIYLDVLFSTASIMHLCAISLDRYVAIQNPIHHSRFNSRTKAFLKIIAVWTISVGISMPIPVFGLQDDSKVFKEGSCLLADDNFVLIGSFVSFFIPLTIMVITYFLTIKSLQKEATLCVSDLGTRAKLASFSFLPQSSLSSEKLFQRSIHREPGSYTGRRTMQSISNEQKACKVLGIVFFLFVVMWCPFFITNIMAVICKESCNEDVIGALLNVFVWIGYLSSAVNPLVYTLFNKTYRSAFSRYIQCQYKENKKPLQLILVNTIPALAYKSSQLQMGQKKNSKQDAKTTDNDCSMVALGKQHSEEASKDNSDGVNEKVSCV
T8 sequence (Q99720 whole entry): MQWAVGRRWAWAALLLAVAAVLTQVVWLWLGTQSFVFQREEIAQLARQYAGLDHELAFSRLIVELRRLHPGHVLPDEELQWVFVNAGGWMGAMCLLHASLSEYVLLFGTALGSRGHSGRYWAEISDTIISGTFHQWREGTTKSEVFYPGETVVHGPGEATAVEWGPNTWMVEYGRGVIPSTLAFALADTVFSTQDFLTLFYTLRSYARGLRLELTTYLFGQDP
T3 sequence (P35372 whole entry): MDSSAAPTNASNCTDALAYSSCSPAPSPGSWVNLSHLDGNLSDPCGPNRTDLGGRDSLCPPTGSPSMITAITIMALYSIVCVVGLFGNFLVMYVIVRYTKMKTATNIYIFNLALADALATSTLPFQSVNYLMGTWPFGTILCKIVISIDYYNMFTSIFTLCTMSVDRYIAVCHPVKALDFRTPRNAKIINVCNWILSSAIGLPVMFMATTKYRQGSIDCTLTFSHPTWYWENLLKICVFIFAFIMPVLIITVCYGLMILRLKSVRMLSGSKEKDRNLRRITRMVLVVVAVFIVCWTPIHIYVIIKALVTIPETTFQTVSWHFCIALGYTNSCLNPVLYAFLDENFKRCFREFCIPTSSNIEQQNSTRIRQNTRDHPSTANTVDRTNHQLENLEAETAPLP

Row | Structure (SMILES) | pIC50 (mean ± SEM) GluN1-GluN2D [1] | pIC50 (mean ± SEM) GluN1-GluN2C [3] | inhibition at 1 µM (Serotonin 5-HT7) | inhibition at 10 µM (Serotonin 5-HT7) | inhibition at 0.3 µM (Serotonin 5-HT1A) | inhibition at 3 µM (Serotonin 5-HT1A) | inhibition at 0.3 µM (Serotonin 5-HT2C) | inhibition at 3 µM (Serotonin 5-HT2C) | inhibition at 1 µM [4] | inhibition at 10 µM [4] | inhibition at 1 µM (Muscarinic M5) | inhibition at 10 µM (Muscarinic M5) | inhibition at 0.3 µM (Sigma σ1) | inhibition at 3 µM (Sigma σ1) | inhibition at 1 µM [7] | inhibition at 10 µM [7] | inhibition at 10 µM (Histamine H1) | inhibition at 30 µM (Histamine H1) | displacement at the histamine H1 receptor, in words (Histamine H1) | inhibition at 0.3 µM (Serotonin 5-HT2A) | further results
1 | C[C@]12N[C@H](Cc3ccccc31)c1ccccc12 [(+)-MK-801, reference compound] | 6.1 ± 0.58 | 6.2 ± 0.064 |  |  |  |  |  |  |  |  |  |  |  |  |  |  |  |  |  |  | pIC50 (mean ± SEM) GluN1-GluN2B [2]: 7.2 ± 0.067
2 | CCC1=[N+](C)[C@H](C)CC1(c1ccccc1)c1ccccc1.[Cl-] [(R)-EDDP, 2-Ethyl-1,5-dimethyl-3,3-diphenyl-3,4-dihydro-5H-pyrrolium chloride] | 4.3 ± 0.060 | 4.3 ± 0.056 |  |  |  |  |  |  |  |  |  |  |  |  |  |  |  |  |  |  | 
3 | CCC1=N[C@H](C)CC1(c1ccccc1)c1ccccc1 [(R)-EMDP, 5-Ethyl-2-methyl-4,4-diphenyl-3,4-dihydro-2H-pyrrole] |  |  | 0% | 8% | 0% | 7% | 2% | 7% | 3% | 7% | 6% | 3% | 11% | 49% | -5% | 27% | 24% | 62% | significant displacement percentages | 4% | inhibition at 0.3 µM (μ opioid receptor (MOP); 0.3 μM): -4%; inhibition at 3 µM (μ opioid receptor (MOP); 3 μM): 8%; pIC50 (mean ± SEM) GluN1-GluN2A [5]: 4.8 ± 0.088; % inhibition of binding, NMDA ([6]; 1 μM): 12%; % inhibition of binding, NMDA ([6]; 10 μM): 4%; inhibition at 3 µM (Serotonin 5-HT2A): 14%; inhibition at 1 µM (Serotonin 5-HT5A): 1%; inhibition at 10 µM (Serotonin 5-HT5A): 0%
4 | CCC1=N[C@@H](C)CC1(c1ccccc1)c1ccccc1 [(S)-EMDP, 5-Ethyl-2-methyl-4,4-diphenyl-3,4-dihydro-2H-pyrrole] |  |  |  |  |  |  |  |  |  |  |  |  |  |  |  |  |  |  |  |  | IC50 ([1]; read-out: pIC50 (mean ± SEM) GluN1-GluN2D (converted)): > 100 µM; IC50 ([2]; read-out: pIC50 (mean ± SEM) GluN1-GluN2B (converted)): > 100 µM; IC50 ([3]; read-out: pIC50 (mean ± SEM) GluN1-GluN2C (converted)): > 100 µM
5 | CCC(=O)C(C[C@H](C)N(C)C)(c1ccccc1)c1ccccc1 [(S)-methadone, 6-(Dimethylamino)-4,4-diphenylheptan-3-one, reference compound] |  |  | 12% | 58% | -2% | 2% | 30% | 77% | 21% | 74% | 25% | 73% | 23% | 70% | 5% | 17% | 50% | 73% | significant displacement percentages | 22% | inhibition at 3 µM (Serotonin 5-HT2A): 72%; activity on 5-HT2A, in words (Serotonin 5-HT2A; concentration not given): appreciable activity; inhibition at 1 µM (Serotonin 5-HT5A): 24%; inhibition at 10 µM (Serotonin 5-HT5A): 70%
